Measurements as given in ChEMBL document CHEMBL5291721, “A preclinical secondary pharmacology resource illuminates target-adverse drug reaction associations of marketed drugs” (Nat Commun, 2023).

Tests used:
[1] = molecular target: T1, Muscarinic acetylcholine receptor M1 (Homo sapiens, UniProt P11229); assay type: functional, cell-based
T1 sequence (P11229 whole entry): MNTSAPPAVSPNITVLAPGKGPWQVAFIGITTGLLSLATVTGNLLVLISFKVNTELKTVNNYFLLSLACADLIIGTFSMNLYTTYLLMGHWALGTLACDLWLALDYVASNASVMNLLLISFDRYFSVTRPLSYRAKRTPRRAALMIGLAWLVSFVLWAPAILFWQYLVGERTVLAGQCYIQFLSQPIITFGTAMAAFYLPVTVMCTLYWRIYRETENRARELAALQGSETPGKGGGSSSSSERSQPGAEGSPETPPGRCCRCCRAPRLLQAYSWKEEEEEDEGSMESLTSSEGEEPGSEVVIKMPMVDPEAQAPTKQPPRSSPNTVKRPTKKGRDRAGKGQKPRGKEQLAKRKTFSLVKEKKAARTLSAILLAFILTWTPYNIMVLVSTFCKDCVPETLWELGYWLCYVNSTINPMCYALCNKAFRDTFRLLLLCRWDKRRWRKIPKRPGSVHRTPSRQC

[2] = molecular target: Mu-type opioid receptor (Homo sapiens, UniProt P35372)
[3] = molecular target: T2, Progesterone receptor (Homo sapiens, UniProt P06401); assay type: functional
T2 sequence (P06401 whole entry): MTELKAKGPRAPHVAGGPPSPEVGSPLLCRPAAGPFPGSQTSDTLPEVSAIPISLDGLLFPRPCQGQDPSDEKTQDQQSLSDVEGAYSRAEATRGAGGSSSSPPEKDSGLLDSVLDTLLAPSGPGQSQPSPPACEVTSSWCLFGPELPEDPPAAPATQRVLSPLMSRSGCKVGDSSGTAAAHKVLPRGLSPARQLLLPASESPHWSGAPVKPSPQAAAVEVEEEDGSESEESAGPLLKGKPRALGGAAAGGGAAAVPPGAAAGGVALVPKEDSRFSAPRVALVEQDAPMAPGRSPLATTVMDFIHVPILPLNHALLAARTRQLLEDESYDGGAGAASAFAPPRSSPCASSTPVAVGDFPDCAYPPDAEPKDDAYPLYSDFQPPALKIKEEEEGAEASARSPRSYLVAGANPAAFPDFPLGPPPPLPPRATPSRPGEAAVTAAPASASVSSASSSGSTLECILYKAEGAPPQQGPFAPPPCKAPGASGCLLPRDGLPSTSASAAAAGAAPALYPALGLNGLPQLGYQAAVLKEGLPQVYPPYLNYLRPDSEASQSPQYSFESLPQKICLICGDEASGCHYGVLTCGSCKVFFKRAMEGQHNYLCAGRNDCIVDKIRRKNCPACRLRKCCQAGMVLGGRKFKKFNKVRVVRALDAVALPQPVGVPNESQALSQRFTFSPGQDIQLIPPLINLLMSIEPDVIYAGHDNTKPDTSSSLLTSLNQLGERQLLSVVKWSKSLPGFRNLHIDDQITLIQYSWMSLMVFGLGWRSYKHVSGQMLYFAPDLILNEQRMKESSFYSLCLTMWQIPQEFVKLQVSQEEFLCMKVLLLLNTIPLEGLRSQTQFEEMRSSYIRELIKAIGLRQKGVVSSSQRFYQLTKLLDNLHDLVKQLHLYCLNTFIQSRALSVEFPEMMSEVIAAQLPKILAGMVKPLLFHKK

[4] = molecular target: Cannabinoid receptor 1 (Homo sapiens, UniProt P21554); assay type: functional, cell-based
[5] = molecular target: T3, Prostaglandin G/H synthase 1 (Rattus norvegicus, UniProt Q63921); assay type: functional
T3 sequence (Q63921 whole entry): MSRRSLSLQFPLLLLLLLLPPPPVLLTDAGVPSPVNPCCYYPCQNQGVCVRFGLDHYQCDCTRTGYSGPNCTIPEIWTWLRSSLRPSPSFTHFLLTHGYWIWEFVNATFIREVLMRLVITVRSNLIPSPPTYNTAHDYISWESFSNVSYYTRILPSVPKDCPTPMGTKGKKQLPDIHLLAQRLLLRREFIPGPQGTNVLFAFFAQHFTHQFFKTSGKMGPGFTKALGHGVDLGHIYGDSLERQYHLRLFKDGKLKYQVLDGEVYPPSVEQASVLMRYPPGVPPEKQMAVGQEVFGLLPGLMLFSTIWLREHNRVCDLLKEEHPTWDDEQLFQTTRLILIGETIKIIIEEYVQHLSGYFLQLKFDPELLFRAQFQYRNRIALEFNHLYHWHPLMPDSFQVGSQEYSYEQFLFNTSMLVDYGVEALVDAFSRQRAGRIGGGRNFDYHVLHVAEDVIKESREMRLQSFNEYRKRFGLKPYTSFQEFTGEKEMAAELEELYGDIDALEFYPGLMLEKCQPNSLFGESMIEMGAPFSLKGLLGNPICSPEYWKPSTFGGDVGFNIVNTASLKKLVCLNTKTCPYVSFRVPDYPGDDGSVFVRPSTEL

[6] = molecular target: T4, Muscarinic acetylcholine receptor M2 (Homo sapiens, UniProt P08172); assay type: functional, cell-based
T4 sequence (P08172 whole entry): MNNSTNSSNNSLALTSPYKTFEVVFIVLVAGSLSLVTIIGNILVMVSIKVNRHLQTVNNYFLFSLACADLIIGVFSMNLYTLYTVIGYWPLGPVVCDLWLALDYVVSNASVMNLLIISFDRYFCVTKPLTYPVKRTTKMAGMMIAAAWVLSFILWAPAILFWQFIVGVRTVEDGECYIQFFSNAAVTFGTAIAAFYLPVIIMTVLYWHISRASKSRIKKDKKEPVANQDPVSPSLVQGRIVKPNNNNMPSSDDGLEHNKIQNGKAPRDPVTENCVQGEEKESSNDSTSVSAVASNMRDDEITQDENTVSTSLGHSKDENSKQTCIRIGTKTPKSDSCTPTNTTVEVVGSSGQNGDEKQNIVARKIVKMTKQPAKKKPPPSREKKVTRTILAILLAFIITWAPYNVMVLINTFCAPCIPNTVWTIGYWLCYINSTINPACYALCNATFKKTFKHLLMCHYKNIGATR

[7] = molecular target: T5, Type-1 angiotensin II receptor (Homo sapiens, UniProt P30556)
T5 sequence (P30556 whole entry): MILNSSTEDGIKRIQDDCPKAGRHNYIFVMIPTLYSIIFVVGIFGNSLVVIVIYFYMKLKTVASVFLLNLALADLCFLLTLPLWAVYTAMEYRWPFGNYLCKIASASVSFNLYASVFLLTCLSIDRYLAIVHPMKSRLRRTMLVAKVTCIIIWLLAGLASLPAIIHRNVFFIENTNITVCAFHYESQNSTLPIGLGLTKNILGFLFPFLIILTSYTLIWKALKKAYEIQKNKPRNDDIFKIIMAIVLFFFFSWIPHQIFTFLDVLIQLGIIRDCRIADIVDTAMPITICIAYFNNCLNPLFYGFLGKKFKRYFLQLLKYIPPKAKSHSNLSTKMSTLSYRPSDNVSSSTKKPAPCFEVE
Further: assay procedure not described here.

Mu-type opioid receptor, sequence (P35372 whole entry): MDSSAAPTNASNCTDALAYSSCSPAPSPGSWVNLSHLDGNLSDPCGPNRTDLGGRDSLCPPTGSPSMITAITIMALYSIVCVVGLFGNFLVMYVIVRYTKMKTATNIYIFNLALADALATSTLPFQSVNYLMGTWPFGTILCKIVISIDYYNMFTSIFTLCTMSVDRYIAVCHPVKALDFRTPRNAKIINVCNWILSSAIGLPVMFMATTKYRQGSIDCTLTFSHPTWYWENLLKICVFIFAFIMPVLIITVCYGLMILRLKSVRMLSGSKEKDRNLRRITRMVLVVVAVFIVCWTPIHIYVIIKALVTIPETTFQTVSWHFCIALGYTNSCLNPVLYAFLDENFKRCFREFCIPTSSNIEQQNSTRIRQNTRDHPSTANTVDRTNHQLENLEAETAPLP
Cannabinoid receptor 1, sequence (P21554 whole entry): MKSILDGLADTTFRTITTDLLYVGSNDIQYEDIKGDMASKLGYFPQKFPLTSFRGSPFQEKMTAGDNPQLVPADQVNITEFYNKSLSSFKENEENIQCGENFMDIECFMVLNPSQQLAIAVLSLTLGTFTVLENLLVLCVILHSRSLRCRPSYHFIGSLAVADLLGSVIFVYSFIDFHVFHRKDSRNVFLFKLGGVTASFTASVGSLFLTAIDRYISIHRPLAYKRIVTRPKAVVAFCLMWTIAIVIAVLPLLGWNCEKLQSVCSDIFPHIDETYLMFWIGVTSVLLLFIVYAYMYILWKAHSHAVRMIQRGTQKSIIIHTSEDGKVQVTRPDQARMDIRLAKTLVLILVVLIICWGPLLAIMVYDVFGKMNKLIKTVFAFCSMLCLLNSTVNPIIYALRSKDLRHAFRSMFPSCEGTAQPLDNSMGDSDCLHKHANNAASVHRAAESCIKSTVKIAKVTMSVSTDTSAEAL

SMILES | AC50 [1] | other results
CC[C@@H]1C[C@]1(NC(=O)[C@@H]1C[C@@H]2CN1C(=O)[C@H](C(C)(C)C)NC(=O)OCC(C)(C)CCCCc1cccc3c1CN(C3)C(=O)O2)C(=O)NS(=O)(=O)C1CC1 | > 3 µM | 
CC(=O)NO [ACETOHYDROXAMIC ACID] | > 30 µM | 
CC(=O)NCCCCCC(=O)O [ACEXAMIC ACID] | > 30 µM | 
C=C(C)CNc1ccc(C(C)C(=O)O)cc1 (stereo not drawn) [ALMINOPROFEN] | > 30 µM | 
C[C@H]1CN(C[C@H](Cc2ccccc2)C(=O)NCC(=O)O)CC[C@@]1(C)c1cccc(O)c1 [ALVIMOPAN] | > 30 µM | 
C[C@H]1O[C@@H](O[C@H]2CC[C@@]3(C)[C@H](CC[C@@H]4[C@@H]3C[C@@H](O)[C@]3(C)[C@@H](C5=CC(=O)OC5)CC[C@]43O)C2)C[C@H](O)[C@@H]1O[C@H]1C[C@H](O)[C@H](O[C@H]2C[C@H](O)[C@H](O[C@@H]3O[C@H](CO)[C@@H](O)[C@H](O)[C@H]3O)[C@@H](C)O2)[C@@H](C)O1 [DESLANOSIDE] | > 30 µM | 
CC[C@H]1OC(=O)[C@H](C)[C@@H](O[C@H]2C[C@@](C)(OC)[C@@H](O)[C@H](C)O2)[C@H](C)[C@@H](O[C@@H]2O[C@H](C)C[C@H](N(C)C)[C@H]2O)[C@](C)(O)C[C@@H](C)[C@@H]2N[C@@H](COCCOC)O[C@H]([C@H]2C)[C@]1(C)O [DIRITHROMYCIN] | > 30 µM | 
CCCCc1oc2ccc(NS(C)(=O)=O)cc2c1C(=O)c1ccc(OCCCN(CCCC)CCCC)cc1 [DRONEDARONE] | 7.76 µM | 
CC(C)C(=O)Oc1ccc(CO)cc1[C@H](CCN(C(C)C)C(C)C)c1ccccc1 [FESOTERODINE] | 0.354 µM | 
Cc1onc(-c2c(F)cccc2Cl)c1C(=O)N[C@@H]1C(=O)N2[C@@H]1SC(C)(C)[C@@H]2C(=O)O [FLOXACILLIN] |  | AC50 [2]: > 30 µM; AC50 [3]: > 30 µM; AC50 [4]: > 30 µM; AC50 [5]: > 30 µM; AC50 [6]: > 30 µM; AC50 [7]: > 30 µM
C[N+](C)(CCCCCC[N+](C)(C)C1c2ccccc2-c2ccccc21)C1c2ccccc2-c2ccccc21 [HEXAFLUORENIUM] | 7.41 µM | 
CCCCC(CC)CN1CN(CC(CC)CCCC)CC(C)(N)C1 (stereo not drawn) [HEXETIDINE] | 9.85 µM | 
Cc1cc(=O)oc2cc(O)ccc12 [HYMECROMONE] | > 30 µM | 
COc1c2occc2c(OC)c2c(=O)cc(C)oc12 [KHELLIN] | > 30 µM | 
CC(C)[C@@H]1CC[C@@H](C)C[C@H]1O [LEVOMENTHOL] | > 30 µM | 
COC(=O)[C@@H](N)Cc1ccc(O)c(O)c1 [MELEVODOPA] | 22.1 µM | 
C[N+]1(C)CCCC(OC(=O)C(O)(c2ccccc2)c2ccccc2)C1 (stereo not drawn) [MEPENZOLATE] | > 30 µM | 
C=N[C@@H](C(=O)N[C@@H]1C(=O)N2[C@@H]1SC(C)(C)[C@@H]2C(=O)O)c1ccccc1 [METAMPICILLIN] | > 30 µM | 
O=C(NNCS(=O)(=O)O)c1ccncc1 [METHANIAZIDE] | > 30 µM | 
Cc1cc(=O)[nH]c(=S)[nH]1 [METHYLTHIOURACIL] | > 30 µM | 
CN(C)c1ccc(O)c2c1C[C@H]1C[C@H]3[C@H](N(C)C)C(O)=C(C(N)=O)C(=O)[C@@]3(O)C(O)=C1C2=O [MINOCYCLINE] | > 30 µM | 
CCNC(=O)/C=C(C)/C=C/C=C(C)/C=C/c1c(C)cc(OC)c(C)c1C [MOTRETINIDE] | 16.6 µM | 
CN1Cc2c(N)cccc2C(c2ccccc2)C1 (stereo not drawn) [NOMIFENSINE] |  | AC50 [2]: 4.4 µM; AC50 [3]: > 30 µM; AC50 [4]: > 30 µM; AC50 [5]: 7.5 µM; AC50 [6]: > 30 µM; AC50 [7]: > 30 µM
C=CC(=O)Nc1cccc(Oc2nc(Nc3ccc(N4CCN(C)CC4)cc3)nc3ccsc23)c1 [OLMUTINIB] | 2.29 µM | 
CCCCC1C(=O)N(c2ccccc2)N(c2ccc(O)cc2)C1=O (stereo not drawn) [OXYPHENBUTAZONE ANHYDROUS] | > 30 µM | 
O=C(O)CN(CCN(CC(=O)O)CC(=O)O)CCN(CC(=O)O)CC(=O)O [PENTETIC ACID] | > 30 µM | 
Nc1cccc2c1C(=O)N(C1CCC(=O)NC1=O)C2=O (stereo not drawn) [POMALIDOMIDE] | > 30 µM | 
CN(CCOc1ccc(CC2SC(=O)NC2=O)cc1)c1ccccn1 (stereo not drawn) [ROSIGLITAZONE] |  | AC50 [2]: > 10 µM; AC50 [3]: > 30 µM; AC50 [4]: > 30 µM; AC50 [5]: > 30 µM; AC50 [6]: > 30 µM; AC50 [7]: 18 µM
